Measurements published in US20110190365A1, “Insecticidal 4-phenyl-1H-pyrazoles” (Bayer Crop Science AG, priority 2008, published 2011).
Where two headings read alike, the source gives them in different places.

Columns and labels:
[1] = tested on: stage 3 Spodoptera litura larvae; experiment: Spodoptera litura larvae test; assay type: in vivo; conditions: active compound concentration 500 ppm, sweet potato leaf dip, after 7 days, mean of two dishes
Procedure: Spodoptera litura Larvae Test
(§1) Solvent: 3 parts by weight of dimethylformamide Emulsifier: 1 part by weight of polyoxyethylene alkylphenyl ether
To prepare a suitable active compound, 1 part by weight of active compound is mixed with the stated amount of solvent comprising the stated amount of emulsifier, and the mixture is diluted with water to the specified concentration.
Sweet potato leaves are dipped into the sample solution diluted with water to the specified concentration and the leaves treated in this manner are, after the solution adhering to the leaves has dried in air, transferred into a laboratory dish which has a diameter of 9 cm and in which there are 10 stage 3 Spodoptera litura larvae. The dish is then placed in a temperature-controlled room at 25° C., sweet potato leaves are then added to the dish on day two and day four and the number of dead insects is determined after 7 days and used to calculate the insecticidal ratio.
The results are the means of two laboratory dishes per group in this test.

[2] = tested on: stage 2 Aulacophora femoralis larvae; experiment: Aulacophora femoralis test (spray test); assay type: in vivo; conditions: active compound concentration 500 ppm, cucumber leaf dip, after 7 days
Procedure: Aulacophora femoralis Test (Spray Test)
as §1
To prepare a suitable active compound formulation, 1 part by weight of the active compound is mixed with the stated amount of solvent comprising the stated amount of emulsifier, and the mixture is diluted with water to a specified concentration.
Cucumber leaves are dipped into a dilute aqueous solution of an active compound at the specified concentration prepared in the same manner as in the test described above, air-dried and transferred into a plastic dish with sterilized black soil. 5 stage 2 Aulacophora femoralis larvae are transferred into this dish. The dish is then placed into a temperature-controlled room at 25° C. After 7 days, the number of dead larvae is counted to calculate the mortality.

[3] = log P by HPLC on a reversed-phase column (C18), EEC Directive 79/831 Annex V.A8; assay type: physicochemical
Procedure: The stated log P values were determined in accordance with EEC Directive 79/831 Annex V.A8 by HPLC (High Performance Liquid Chromatography) using a reversed-phase column (C18).

[4] = tested on: larvae of the mustard beetle (Phaedon cochleariae); experiment: Phaedon cochleariae test (PHAECO spray treatment); assay type: in vivo; conditions: application rate 500 g/ha, Chinese cabbage leaf discs sprayed, after 7 days
Procedure: Phaedon cochleariae Test (PHAECO Spray Treatment)
(§2) Solvent: 78.0 parts by weight of acetone • • 1.5 parts by weight of dimethylformamide Emulsifier: 0.5 part by weight of alkylaryl polyglycol ether
(§3) To produce a suitable preparation of active compound, 1 part by weight of active compound is mixed with the stated amounts of solvent and emulsifier, and the concentrate is diluted with emulsifier-containing water to the desired concentration.
Discs of Chinese cabbage (Brassica pekinensis) are sprayed with an active compound preparation of the desired concentration and, after drying, populated with larvae of the mustard beetle (Phaedon cochleariae).
After 7 days, the effect in % is determined. 100% means that all beetle larvae have been killed; 0% means that none of the beetle larvae have been killed.

[5] = tested on: green peach aphid (Myzus persicae); experiment: Myzus persicae test (MYZUPE spray treatment); assay type: in vivo; conditions: application rate 500 g/ha, Chinese cabbage leaf discs sprayed, after 6 days
Procedure: Myzus persicae Test (MYZUPE Spray Treatment)
as §2, §3
Discs of Chinese cabbage (Brassica pekinensis) infected by all stages of the green peach aphid (Myzus persicae) are sprayed with an active compound preparation of the desired concentration.
After 6 days, the effect in % is determined. 100% means that all of the aphids have been killed; 0% means that none of the aphids have been killed.

[6] = tested on: caterpillars of the armyworm (Spodoptera frugiperda); experiment: Spodoptera frugiperda test (SPODFR spray treatment); assay type: in vivo; conditions: application rate 500 g/ha, maize leaf discs sprayed, after 7 days
Procedure: Spodoptera frugiperda Test (SPODFR Spray Treatment)
as §2, §3
Discs of maize leaves (Zea mays) are sprayed with an active compound preparation of the desired concentration and, after drying, populated with caterpillars of the armyworm (Spodoptera frugiperda).
After 7 days, the effect in % is determined 100% means that all caterpillars have been killed; 0% means that none of the caterpillars have been killed.

[7] = HPLC, reversed-phase C18, mobile phase with formic acid

O=C(NCC(F)(F)F)c1ccc(-n2cc(-c3cc(C(F)(F)F)cc(C(F)(F)F)c3)c(C(F)(F)F)n2)cc1C(F)(F)F [I-A-Q2-010]
kill of the insect larvae [1]: 100% | kill of the insects [2]: 100%

O=C(NCc1ccccn1)c1ccc(-n2cc(-c3cc(Cl)cc(Cl)c3)c(C(F)(F)F)n2)cc1C(F)(F)F [I-A-Q2-001]
log P (pH 2) ([3]; pH 2): I-A-Q2-001: log P (pH 2): 4.02 | log P (pH 7.5) ([3]; pH 7.5): log P (pH 7.5): 4.74 | kill of the insect larvae [1]: 100%

O=C(NCC(F)(F)F)c1ccc(-n2cc(-c3cc(Cl)cc(Cl)c3)c(C(F)(F)F)n2)cc1C(F)(F)F [I-A-Q2-002, 4-[4-(3,5-Dichlorophenyl)-3-trifluoromethylpyrazol-1-yl]-N-(2,2,2-trifluoroethyl)-2-trifluoromethylbenzamide]
chromatographic logP ([3]; pH 2, read-out: log P (pH 2)): 5.16 | chromatographic logP ([3]; pH 7.5, read-out: log P (pH 7.5)): 5.14 | kill of the insect larvae [1]: 100% | kill of the insects [2]: 100%

N#Cc1cc(-n2nc(C(F)(F)F)c(-c3cc(Cl)cc(Cl)c3)c2N)ccc1-n1cnc(S)n1 [I-A-Q1-089]
log P (HCOOH) [3, 7]: I-A-Q1-089: log P (HCOOH): 3.53 | effect in % (beetle larvae killed) [4]: 83% | effect in % (aphids killed) [5]: 90%

CC(NC(=O)c1ccc(-n2cc(-c3cc(Cl)cc(Cl)c3)c(C(F)(F)F)n2)cc1C(F)(F)F)C(F)(F)F (stereo not shown) [I-A-Q2-005]
kill of the insect larvae [1]: 100% | kill of the insects [2]: 100%

CSc1cc(-n2nc(C(F)(F)F)c(-c3cc(Cl)cc(Cl)c3)c2N)ccc1C(=O)NCc1ccccn1 [I-A-Q2-409]
log P (HCOOH) ([3]; HCOOH): I-A-Q2-409: log P (HCOOH): 3.38 | effect in % (caterpillars killed) [6]: 83%

N#Cc1cc(-n2nc(C(F)(F)F)c(-c3cc(Cl)cc(Cl)c3)c2N)ccc1-n1cnc(Cl)n1 [I-A-Q1-091]
log P (HCOOH) [3, 7]: I-A-Q1-091: log P (HCOOH): 4.17 | effect in % (beetle larvae killed) [4]: 100% | effect in % (caterpillars killed) [6]: 100%
